Test results as given in paper PMC9519552, “Activation of the human insulin receptor by non-insulin-related peptides” (Nature Communications, 2022).
pIC50, pKi: −log10 of the molar value. Read-outs that look alike come from different tables or passages of the source. Positions of bridges follow the written chain, without caps; N, C: chain ends. Residues, ends and D or L forms follow the SMILES beside them.

Assays:
human IR-A (holoIR-A) = molecular target: T1, human IR-A (holoIR-A) (Homo sapiens, UniProt P06213); assay: holoIR-A competitive radioligand binding assay (scintillation proximity assay); details: for pKi: read-out: hIRA Binding Ki Mean; for reduction in ki for hIR-A on substitution: relative to control peptide IM172N22 devoid of N-terminal phenylacetylation
T1 construct: expressed in transfected cells; host or cells: HEK293 (ATCC #CRL-1573), stably transfected; membrane preparation
T1 sequence (P06213 28-1370 isoform P06213-2 limits assumed): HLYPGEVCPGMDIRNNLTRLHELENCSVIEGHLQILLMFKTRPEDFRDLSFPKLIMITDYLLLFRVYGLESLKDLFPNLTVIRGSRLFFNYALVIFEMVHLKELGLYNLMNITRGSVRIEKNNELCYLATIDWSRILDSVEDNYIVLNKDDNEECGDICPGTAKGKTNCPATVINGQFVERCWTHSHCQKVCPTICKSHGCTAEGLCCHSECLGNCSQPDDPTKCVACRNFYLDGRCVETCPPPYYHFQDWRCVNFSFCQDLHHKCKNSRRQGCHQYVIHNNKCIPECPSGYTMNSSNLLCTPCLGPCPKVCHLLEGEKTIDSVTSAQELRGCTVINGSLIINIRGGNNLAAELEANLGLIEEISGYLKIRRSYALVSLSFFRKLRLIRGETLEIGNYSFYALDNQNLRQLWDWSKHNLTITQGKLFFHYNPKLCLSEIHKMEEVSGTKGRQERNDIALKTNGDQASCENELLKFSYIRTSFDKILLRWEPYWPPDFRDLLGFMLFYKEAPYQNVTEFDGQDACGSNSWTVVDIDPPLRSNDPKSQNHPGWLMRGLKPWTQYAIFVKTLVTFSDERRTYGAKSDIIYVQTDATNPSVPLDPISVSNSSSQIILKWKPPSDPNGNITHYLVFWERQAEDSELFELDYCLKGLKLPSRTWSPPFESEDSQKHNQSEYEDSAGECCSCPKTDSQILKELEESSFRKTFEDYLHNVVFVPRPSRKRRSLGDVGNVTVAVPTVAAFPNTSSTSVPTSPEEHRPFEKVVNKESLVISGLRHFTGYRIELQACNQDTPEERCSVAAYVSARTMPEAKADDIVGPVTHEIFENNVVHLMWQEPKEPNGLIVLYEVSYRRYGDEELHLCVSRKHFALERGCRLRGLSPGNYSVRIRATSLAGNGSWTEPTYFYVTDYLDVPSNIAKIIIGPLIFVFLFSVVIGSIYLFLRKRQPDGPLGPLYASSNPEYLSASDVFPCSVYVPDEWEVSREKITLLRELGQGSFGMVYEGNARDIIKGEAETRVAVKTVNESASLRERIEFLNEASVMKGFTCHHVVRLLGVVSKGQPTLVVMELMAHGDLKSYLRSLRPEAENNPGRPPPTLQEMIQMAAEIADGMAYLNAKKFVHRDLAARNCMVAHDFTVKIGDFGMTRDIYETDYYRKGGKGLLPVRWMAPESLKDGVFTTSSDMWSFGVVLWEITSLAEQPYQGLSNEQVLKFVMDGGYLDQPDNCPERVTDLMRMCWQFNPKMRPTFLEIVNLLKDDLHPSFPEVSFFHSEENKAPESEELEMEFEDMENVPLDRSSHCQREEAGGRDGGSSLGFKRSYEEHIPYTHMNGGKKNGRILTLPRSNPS
T1 sequence (P06213 763-1382 partner limits assumed): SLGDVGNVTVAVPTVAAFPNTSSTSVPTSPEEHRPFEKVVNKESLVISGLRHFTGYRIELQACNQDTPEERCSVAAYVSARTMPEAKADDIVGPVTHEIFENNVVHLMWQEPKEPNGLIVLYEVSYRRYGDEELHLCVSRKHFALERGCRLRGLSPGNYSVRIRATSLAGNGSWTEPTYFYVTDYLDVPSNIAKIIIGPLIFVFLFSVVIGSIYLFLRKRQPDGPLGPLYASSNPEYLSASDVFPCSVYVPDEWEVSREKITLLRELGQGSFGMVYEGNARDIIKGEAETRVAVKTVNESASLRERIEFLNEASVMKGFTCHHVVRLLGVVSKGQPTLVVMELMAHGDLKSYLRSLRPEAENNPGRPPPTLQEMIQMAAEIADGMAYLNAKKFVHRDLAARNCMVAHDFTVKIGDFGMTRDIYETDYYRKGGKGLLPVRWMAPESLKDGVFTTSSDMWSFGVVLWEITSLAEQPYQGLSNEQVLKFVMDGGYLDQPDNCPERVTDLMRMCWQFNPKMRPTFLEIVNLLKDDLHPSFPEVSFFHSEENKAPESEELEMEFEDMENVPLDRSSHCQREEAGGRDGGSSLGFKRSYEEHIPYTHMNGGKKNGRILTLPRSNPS
How it was run: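 Membranes from HEK293 cells stably expressing C9-tagged human IR-A were used in a WGA-bead SPA competition assay in 50 mM Tris-HCl pH 7.5, 150 mM NaCl, 0.1% fatty-acid-free BSA. Ten-point 3-fold dilutions were incubated 10 h at room temperature before scintillation counting. Percent specific inhibition was calculated after nonspecific-binding correction, from three independent runs.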

[1] = molecular target: T2, human holoIR-A over-expressed in HEK293 cells (Homo sapiens, UniProt P06213); assay: Inhibition of hIR phosphorylation by peptides, co-incubated with BHI at its EC50 (ELISA); type: cell-based; details: for hIRA Phosph IC50 Run 1 / hIRA Phosph IC50 Run 2 / hIRA Phosph IC50 Run 3: inhibition of insulin-stimulated phosphorylation; for hIRA Phosph IC50 Run 1: BHI at its EC50, run 1; for hIRA Phosph IC50 Run 2: BHI at its EC50, run 2; for hIRA Phosph IC50 Run 3: BHI at its EC50, run 3; for pIC50: read-out: hIRA Phosph IC50 Mean
T2 construct: expressed in transfected cells; host or cells: HEK293, stably transfected
T2 sequence (P06213 28-1370 isoform P06213-2 limits assumed): as the sequence (P06213 28-1370 isoform P06213-2 limits assumed) above
T2 sequence (P06213 763-1382 partner limits assumed): as the sequence (P06213 763-1382 partner limits assumed) above
How it was run: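 Phosphorylation ELISA (TMB, A450) after anti-C9 capture of lysates from stably transfected HEK293 cells expressing C-terminally C9-tagged human holoIR-A, serum-starved overnight in 0.1% BSA/DMEM. Percent specific response versus log concentration, from three independent runs on three days.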

[2] = IM172N22(-) mutant peptide set, mean of 3 runs
[3] = IM172N22(-) mutant peptide set, run 1, read-out: hIRA Binding Ki Run 1
[4] = IM172N22(-) mutant peptide set, run 2, read-out: hIRA Binding Ki Run 2
[5] = IM172N22(-) mutant peptide set, run 3, read-out: hIRA Binding Ki Run 3

| Compound | pKi (human IR-A (holoIR-A); [2]) | Ki (human IR-A (holoIR-A); [3]) [nM] | Ki (human IR-A (holoIR-A); [4]) [nM] | Ki (human IR-A (holoIR-A); [5]) [nM] | reduction in ki for hIR-A on substitution (human IR-A (holoIR-A)) | hIRA Phosph IC50 Run 1 [1] [nM] | hIRA Phosph IC50 Run 2 [1] [nM] | hIRA Phosph IC50 Run 3 [1] [nM] | pIC50 [1] | binding of the mutant peptide to hIR-A (in words) (human IR-A (holoIR-A); alanine substitution in IM172N22(-)) | pKi (human IR-A (holoIR-A)) |
| --- | --- | --- | --- | --- | --- | --- | --- | --- | --- | --- | --- |
| CC[C@H](C)[C@H](NC(=O)[C@H](CCC(N)=O)NC(=O)[C@H](C)NC(=O)[C@H](Cc1c[nH]c2ccccc12)NC(=O)[C@H](CCC(=O)O)NC(=O)[C@H](CCC(=O)O)NC(=O)[C@H](CCC(=O)O)NC(=O)[C@H](CC(C)C)NC(=O)[C@H](CO)NC(C)=O)C(=O)N[C@@H](CCC(=O)O)C(=O)N[C@H]1CSSC[C@@H](C(=O)N[C@@H](C)C(=O)N2CCC[C@H]2C(=O)N[C@@H](CO)C(=O)N[C@@H](CCC(=O)O)C(=O)N[C@@H](CO)C(N)=O)NC(=O)[C@H](CCCNC(=N)N)NC(=O)CNC(=O)[C@H](Cc2ccc(O)cc2)NC(=O)[C@H](C(C)C)NC(=O)[C@H](CCC(=O)O)NC1=O [Peptide P18A] (Ac-SLEEEWAQIECEVYGRCAPSES-NH2; disulfide 11-17) | 7.64 | 20.6 | 21.2 | 27.3 | lower than 5 fold | 158 | 143 | 123 | 6.85 |  |  |
| CC[C@H](C)[C@H](NC(=O)[C@H](CCC(N)=O)NC(=O)[C@H](C)NC(=O)[C@H](Cc1c[nH]c2ccccc12)NC(=O)[C@H](CCC(=O)O)NC(=O)[C@H](CCC(=O)O)NC(=O)[C@H](CCC(=O)O)NC(=O)[C@H](CC(C)C)NC(=O)[C@H](CO)NC(C)=O)C(=O)N[C@@H](C)C(=O)N[C@H]1CSSC[C@@H](C(=O)N2CCC[C@H]2C(=O)N2CCC[C@H]2C(=O)N[C@@H](CO)C(=O)N[C@@H](CCC(=O)O)C(=O)N[C@@H](CO)C(N)=O)NC(=O)[C@H](CCCNC(=N)N)NC(=O)CNC(=O)[C@H](Cc2ccc(O)cc2)NC(=O)[C@H](C(C)C)NC(=O)[C@H](CCC(=O)O)NC1=O [Peptide E10A] (Ac-SLEEEWAQIACEVYGRCPPSES-NH2; disulfide 11-17) | 7.72 | 19.4 | 16.4 | 21.2 | lower than 5 fold | 272 | 217 | 236 | 6.62 |  |  |
| CC[C@H](C)[C@H](NC(=O)[C@H](CCC(N)=O)NC(=O)[C@H](C)NC(=O)[C@H](Cc1c[nH]c2ccccc12)NC(=O)[C@H](CCC(=O)O)NC(=O)[C@H](CCC(=O)O)NC(=O)[C@H](CCC(=O)O)NC(=O)[C@H](CC(C)C)NC(=O)[C@H](CO)NC(C)=O)C(=O)N[C@@H](CCC(=O)O)C(=O)N[C@H]1CSSC[C@@H](C(=O)N2CCC[C@H]2C(=O)N2CCC[C@H]2C(=O)N[C@@H](CO)C(=O)N[C@@H](CCCNC(=N)N)C(=O)N[C@@H](CO)C(N)=O)NC(=O)[C@H](CCCNC(=N)N)NC(=O)CNC(=O)[C@H](Cc2ccc(O)cc2)NC(=O)[C@H](C(C)C)NC(=O)[C@H](CCC(=O)O)NC1=O [Peptide E21R] (Ac-SLEEEWAQIECEVYGRCPPSRS-NH2; disulfide 11-17) | 8.05 | 8.75 | 8.05 | 9.91 |  | 28 | 27 | 29 | 7.55 |  |  |
| CC[C@H](C)[C@H](NC(=O)[C@H](CCC(N)=O)NC(=O)[C@H](C)NC(=O)[C@H](Cc1c[nH]c2ccccc12)NC(=O)[C@H](CCC(=O)O)NC(=O)[C@H](CCC(=O)O)NC(=O)[C@H](CCC(=O)O)NC(=O)[C@H](CC(C)C)NC(=O)[C@H](CO)NC(C)=O)C(=O)N[C@@H](CCC(=O)O)C(=O)N[C@H]1CSSC[C@@H](C(=O)N2CCC[C@H]2C(=O)N2CCC[C@H]2C(=O)N[C@@H](CO)C(=O)N[C@@H](CCC(=O)O)C(=O)N[C@@H](CO)C(N)=O)NC(=O)[C@H](CCCNC(=N)N)NC(=O)CNC(=O)[C@H](Cc2ccc(O)cc2)NC(=O)[C@H](C(C)C)NC(=O)[C@H](CCCNC(=N)N)NC1=O [Peptide E12R] (Ac-SLEEEWAQIECRVYGRCPPSES-NH2; disulfide 11-17) | 6.88 | 117 | 126 | 152 |  | 2869 | 2922 | 2670 | 5.55 |  |  |
| CC(=O)N[C@@H](CO)C(=O)N[C@@H](CC(C)C)C(=O)N[C@@H](CCC(=O)O)C(=O)N[C@@H](CCC(=O)O)C(=O)N[C@@H](CCC(=O)O)C(=O)N[C@@H](Cc1c[nH]c2ccccc12)C(=O)N[C@@H](C)C(=O)N[C@@H](CCC(N)=O)C(=O)N[C@@H](C)C(=O)N[C@@H](CCC(=O)O)C(=O)N[C@H]1CSSC[C@@H](C(=O)N2CCC[C@H]2C(=O)N2CCC[C@H]2C(=O)N[C@@H](CO)C(=O)N[C@@H](CCC(=O)O)C(=O)N[C@@H](CO)C(N)=O)NC(=O)[C@H](CCCNC(=N)N)NC(=O)CNC(=O)[C@H](Cc2ccc(O)cc2)NC(=O)[C@H](C(C)C)NC(=O)[C@H](CCC(=O)O)NC1=O [Peptide I9A] (Ac-SLEEEWAQAECEVYGRCPPSES-NH2; disulfide 11-17) | 6.02 | 952 | 835 | 1068 |  | 4745 | 4291 | 4550 | 5.34 |  |  |
| CC[C@H](C)[C@H](NC(=O)[C@H](CCC(N)=O)NC(=O)[C@H](C)NC(=O)[C@H](Cc1c[nH]c2ccccc12)NC(=O)[C@H](CCC(=O)O)NC(=O)[C@H](CCC(=O)O)NC(=O)[C@H](CCC(=O)O)NC(=O)[C@H](C)NC(=O)[C@H](CO)NC(C)=O)C(=O)N[C@@H](CCC(=O)O)C(=O)N[C@H]1CSSC[C@@H](C(=O)N2CCC[C@H]2C(=O)N2CCC[C@H]2C(=O)N[C@@H](CO)C(=O)N[C@@H](CCC(=O)O)C(=O)N[C@@H](CO)C(N)=O)NC(=O)[C@H](CCCNC(=N)N)NC(=O)CNC(=O)[C@H](Cc2ccc(O)cc2)NC(=O)[C@H](C(C)C)NC(=O)[C@H](CCC(=O)O)NC1=O [Peptide L2A] (Ac-SAEEEWAQIECEVYGRCPPSES-NH2; disulfide 11-17) | < 5.30 | >5000 | >5000 | >5000 |  | 7523 | 7642 | 7687 | 5.12 | no detectable binding |  |
| CC[C@H](C)[C@H](NC(=O)[C@H](CCC(N)=O)NC(=O)[C@H](C)NC(=O)[C@H](Cc1c[nH]c2ccccc12)NC(=O)[C@H](CCC(=O)O)NC(=O)[C@H](CCC(=O)O)NC(=O)[C@H](C)NC(=O)[C@H](CC(C)C)NC(=O)[C@H](CO)NC(C)=O)C(=O)N[C@@H](CCC(=O)O)C(=O)N[C@H]1CSSC[C@@H](C(=O)N2CCC[C@H]2C(=O)N2CCC[C@H]2C(=O)N[C@@H](CO)C(=O)N[C@@H](CCC(=O)O)C(=O)N[C@@H](CO)C(N)=O)NC(=O)[C@H](CCCNC(=N)N)NC(=O)CNC(=O)[C@H](Cc2ccc(O)cc2)NC(=O)[C@H](C(C)C)NC(=O)[C@H](CCC(=O)O)NC1=O [Peptide E3A] (Ac-SLAEEWAQIECEVYGRCPPSES-NH2; disulfide 11-17) | 6.47 | 335 | 353 | 337 |  | 1212 | 1189 | 1302 | 5.91 |  |  |
| CC[C@H](C)[C@H](NC(=O)[C@H](CCC(N)=O)NC(=O)[C@H](C)NC(=O)[C@H](Cc1c[nH]c2ccccc12)NC(=O)[C@H](CCC(=O)O)NC(=O)[C@H](CCC(=O)O)NC(=O)[C@H](CCC(=O)O)NC(=O)[C@H](CC(C)C)NC(=O)[C@H](CO)NC(C)=O)C(=O)N[C@@H](CCC(=O)O)C(=O)N[C@H]1CSSC[C@@H](C(=O)N2CCC[C@H]2C(=O)N2CCC[C@H]2C(=O)N[C@@H](CO)C(=O)N[C@@H](CCC(=O)O)C(=O)N[C@@H](CO)C(N)=O)NC(=O)[C@H](CCCNC(=N)N)NC(=O)CNC(=O)[C@H](Cc2ccc(O)cc2)NC(=O)[C@H](C(C)C)NC(=O)[C@H](CCC(=O)O)NC1=O [IM172N22-] (Ac-SLEEEWAQIECEVYGRCPPSES-NH2; disulfide 11-17) |  | 7.07 | 8.06 | 9.36 |  | 85 | 76 | 80 | 7.10 |  | 8.09 |
